Values of other authors as cited in patent publication US12728096B2, “Pharmaceutical composition comprising enzalutamide” (Synthon B.V., priority 2019, dated 2026).

How the values were obtained:
[1] = pH 1 to 11

Compound: CNC(=O)c1ccc(N2C(=S)N(c3ccc(C#N)c(C(F)(F)F)c3)C(=O)C2(C)C)cc1F [Enzalutamide, 4-[3-[4-cyano-3-(trifluoromethyl)phenyl]-5,5-dimethyl-4-oxo-2-sulfanylideneimidazolidin-1-yl]-2-fluoro-N-methylbenzamide]
- solubility in water [1]: practically insoluble
- permeability (BCS): high permeability
- solubility (BCS): low solubility
